Measured values reported in patent US12702689B2, “Anti-inflammatory compositions, and uses thereof” (P.L. THOMAS & CO., INC., priority 2022, dated 2026).

Experiments:
[1] = system: airway reactivity to acetyl-β-methacholine chloride; assay: Airway hyperresponsiveness: total respiratory system resistance (Rrs) to methacholine, flexiVent; type: in vivo, BALB/cJ female mice; conditions: for total respiratory system resistance (Rrs) in response to methacholine: OVA+AKBA mice
Text: Allergic airway phenotype was induced by using an ovalbumin (OVA, hen egg) sensitization and challenge model as previously described with modifications [Beigelman, A. et al. Azithromycin attenuates airway inflammation in a noninfectious mouse model of allergic asthma. Chest 136, 498-506 (2009)]. Briefly (FIG. 1), two groups of mice (OVA control and OVA+AKBA) were sensitized with intraperitoneal ovalbumin plus alum on days 0 and 7, challenged for 3 days (day 14 to day 17) via nebulized OVA at 1% in PBS for 30 mins, and harvested 48 hr after final challenge. Supplementation groups (OVA+AKBA) were given 100 mg/kg of water soluble AKBA (pH 7) (PLT Health Solutions, Morristown, NJ, US) in autoclaved mouse water, via gavage, every other day for 10 days and then every day for the remainder of the experiment (9 days). OVA control and naïve mouse continued to receive normal autoclaved mouse water. Mice were weighted at the beginning and end of the experiment. Experiments involving AKBA were conducted twice, with the first group containing 5 mice per group and the second containing 15 mice per group (5 per group for naive). Experiment procedures were identical, and results were pooled for n=20 (n=5 for naive). Animal protocol 102063-0522 was approved by the University of Connecticut Health IACUC board.
Airway reactivity was assessed based on total respiratory system resistance (Rrs) response to increasing doses (0-100 mg/ml) of acetyl-β-methacholine chloride (Sigma-Aldrich, St. Louis, MO). Mice were […] (150 mg/kg ketamine and 10 mg/kg xylazine), underwent tracheostomies and were mechanically ventilated using the flexiVent system (SCIREQ, Montreal, CA). Airway reactivity was determined by assessing forced oscillatory mechanics every 10 s for 4 min following each methacholine challenge.

gut microbiome = assay: Gut microbiome profiling of fecal pellets by 16S rRNA sequencing; type: in vivo, BALB/cJ female mice
Text: Allergic airway phenotype was induced by using an ovalbumin (OVA, hen egg) sensitization and challenge model as previously described with modifications [Beigelman, A. et al. Azithromycin attenuates airway inflammation in a noninfectious mouse model of allergic asthma. Chest 136, 498-506 (2009)]. Briefly (FIG. 1), two groups of mice (OVA control and OVA+AKBA) were sensitized with intraperitoneal ovalbumin plus alum on days 0 and 7, challenged for 3 days (day 14 to day 17) via nebulized OVA at 1% in PBS for 30 mins, and harvested 48 hr after final challenge. Supplementation groups (OVA+AKBA) were given 100 mg/kg of water soluble AKBA (pH 7) (PLT Health Solutions, Morristown, NJ, US) in autoclaved mouse water, via gavage, every other day for 10 days and then every day for the remainder of the experiment (9 days). OVA control and naïve mouse continued to receive normal autoclaved mouse water. Mice were weighted at the beginning and end of the experiment. Experiments involving AKBA were conducted twice, with the first group containing 5 mice per group and the second containing 15 mice per group (5 per group for naive). Experiment procedures were identical, and results were pooled for n=20 (n=5 for naive). Animal protocol 102063-0522 was approved by the University of Connecticut Health IACUC board. Experiments were repeated, as stated above, with oral gavages of B. pseudolongum culture in place of AKBA supplementation. Groups were designated as OVA control (n=10), OVA+B. pseudolongum (n=10) and naïve (n=5). OVA+B. pseudolongum groups were given 10^8 CFU B. pseudolongum in culture medium via gavage, every other day for 10 days and then every day for the remainder of the experiment (9 days). Fresh fecal pellets were collected upon defecation and stored in sterile RNA-/DNA-/RNAse-/DNAse-free microcentrifuge tubes at the beginning and end of experiment (FIG. 1). Collected pellets were placed at −80° C. for storage following collection. DNA from pellets were extracted using the PowerSoil DNA Isolation Kit (Qiagen, Hilden, Germany) according to the manufacturer's protocol. Amplicon library preparation and V4 region of 16S rRNA gene sequencing were performed at Illumina HiSeq 4000 (Illumina, CA, US) platform. Raw 16S rRNA sequences (150-bp paired-end reads) were initially processed by BaseSpace software (Illumina, CA, US). One mismatch in primer and zero mismatch in barcodes were applied to sample deconvolution. Deconvoluted sequences were further processed using the DADA2 data processing pipeline with default parameters to obtain amplicon sequence variants (ASVs). Final taxonomic assignment was conducted using RDP-classifier (v2.11) with 0.5 confidence value as cut-off. Reads with <0.5 confidence of classification was “unclassified” at a given taxonomical level. ASV counts were converted to relative abundance and agglomerated at the phylum and genus levels using the Phyloseq R package to visualize the microbiome composition in a stacked bar plot. […] Sample reads were rarefied to 10,000 reads to account for uneven sampling depth. Alpha diversity was determined with the richness and Shannon diversity metrics at the ASV level. Wilcoxon sum rank test was performed to compare alpha diversity of stool microbiome between asthma control and AKBA treated mice at day 0 and day 19. Beta diversity was visualized by principal component analysis (PCA). DESeq2, with an adjusted p value<0.05, was used for the differential taxa analysis. All plots were created with “ggplot2” and all analyses were conducted in RStudio version 4.1.0.

[2] = AKBA treated mice, baseline vs endpoint, DESeq p<0.05

CC(=O)O[C@@H]1CC[C@@]2(C)[C@@H](CC[C@]3(C)[C@@H]2C(=O)C=C2[C@@H]4[C@@H](C)[C@H](C)CC[C@]4(C)CC[C@]23C)[C@@]1(C)C(=O)O [AKBA, 3-O-acetyl-11-keto-b-boswellic acid]
total respiratory system resistance (Rrs) in response to methacholine ([1]; methacholine 12.5 mg, p=0.02 vs OVA control): 2.38±0.55 | total respiratory system resistance (Rrs) in response to methacholine ([1]; methacholine 25 mg, p=0.04 vs OVA control): 3.56±1.25 | difference in Rrs between OVA control and OVA+AKBA ([1]; higher methacholine concentrations (above 25 mg)): No significant difference | difference in Rrs between all three groups ([1]; methacholine 0 mg/mL, ANOVA p=0.341): No significant difference | change in Hyphomicrobium, Solirubrobacter and Steroidobacter (gut microbiome; [2]): decreases | change in Lactiplantibacillus, Lacticaseibacillus and Turicibacter (gut microbiome; [2]): increases | overall richness and Shannon diversity of gut microbiome, baseline to endpoint (gut microbiome; OVA+AKBA group, 100 mg/kg AKBA): maintained | Bifidobacterium increase, fold change (gut microbiome; OVA+AKBA group, baseline to endpoint, Wilcoxon p=0.07 vs OVA control): 15.94±15.84 fold | the 24 genera decreased in OVA control mice (Table 1): decreased in treated group (gut microbiome; OVA+AKBA group, baseline vs end point): None | relative abundances of Actinobacteria phyla and Bifidobacterium genus vs OVA control mice (gut microbiome; OVA+AKBA mice): significantly higher
